Measured values as given in publication PMC11784096, “Synthesis, antibacterial evaluation and in silico studies of novel 2-(benzo[d]thiazol-2-yl)-N-arylacetamides and their derivatives as potential DHFR inhibitors” (BMC Chemistry, 2025).
Values after ≈ are worked out from the molar mass of the structure shown. Read-outs that look alike come from different tables or passages of the source.

What was measured:
E. coli [1] = assay: Agar diffusion method, inhibition zone diameter; assay type: cell-based, Escherichia coli; conditions: Gram-negative
Excerpt: (§1) The bacterial growth inhibition activity of most of the newly synthesized compounds was examined against different Gram-positive and Gram-negative strains. The Agar diffusion method was used to assess the antibacterial and antifungal activity. The Gram-negative strains were: E. coli, K. pneumonia, P. aeruginosa and A. baumannii, the Gram-positive strains were: St. aureus, St. mutans and the standard antibiotics were gentamicin, tigecycline and ampicillin.
(§2) The agar-based media plate surface was inoculated by spreading a volume of the microbial inoculum over the entire agar surface.
(§3) Using a sterile cork borer or a tip, a hole with a diameter of 6 to 8 mm was made.
(§4) Using a micropipette, (20 µL) volume of the antimicrobial agent or extract solution at the desired concentration was introduced into the well.
(§5) The inoculated plates were incubated under suitable conditions depending upon the tested microorganism. The antimicrobial agent diffused through the agar medium and inhibited the growth of the microbial strain tested.
(§6) After a suitable incubation period (16 to 48 hours) according to the optimum growth conditions, the resulting inhibition zone diameters (in mm) around the wells were measured to the nearest whole millimeter at the point at which there is a prominent reduction in growth. If growth is insufficient at the recommended times, the plates should be re-incubated and read later.

K. pneumonia [2] = assay: Agar diffusion method, inhibition zone diameter; assay type: cell-based, Klebsiella pneumonia; conditions: Gram-negative
Excerpt: as §1, §2, §3, §4, §5, §6

P. aeruginosa [3] = assay: Agar diffusion method, inhibition zone diameter; assay type: cell-based, Pseudomonas aeruginosa; conditions: Gram-negative
Excerpt: as §1, §2, §3, §4, §5, §6

A. baumannii [4] = assay: Agar diffusion method, inhibition zone diameter; assay type: cell-based, Acinetobacter baumannii; conditions: Gram-negative
Excerpt: as §1, §2, §3, §4, §5, §6

St. aureus [5] = assay: Agar diffusion method, inhibition zone diameter; assay type: cell-based, Staphylococcus aureus; conditions: Gram-positive
Excerpt: as §1, §2, §3, §4, §5, §6

E. coli [6] = assay: Minimum inhibition concentration, serial dilution; assay type: cell-based, Escherichia coli; conditions: 37 °C; for MIC: Escherichia coli
Protocol: (§7) For each strain, three to five isolated colonies were selected from the fresh agar plate and transferred into a tube containing 3-4 ml of the sterile broth medium. The bacterial suspension was mixed well and incubated at 35-37 °C for 2-6 hours. […] After that, 1 mg of the tested compound (antimicrobial agent) was dissolved in 1 ml of DMSO and a two-fold serial dilution was done using a broth medium. A fixed volume of the prepared bacterial inoculum was added to each tube and incubated at 37 °C for 16-20 hours. The MIC is defined as the lowest concentration of the antimicrobial agent that inhibits visible growth of the tested isolate as observed with the unaided eye.

K. pneumonia [7] = assay: Minimum inhibition concentration, serial dilution; assay type: cell-based, Klebsiella pneumonia; conditions: 37 °C; for MIC: Klebsiella pneumoniae
Protocol: as §7

P. aeruginosa [8] = assay: Minimum inhibition concentration, serial dilution; assay type: cell-based, Pseudomonas aeruginosa; conditions: 37 °C; for MIC: Pseudomonas aeruginosa
Protocol: as §7

A. baumannii [9] = assay: Minimum inhibition concentration, serial dilution; assay type: cell-based, Acinetobacter baumannii; conditions: 37 °C; for MIC: Acinetobacter baumannii
Protocol: as §7

St. aureus [10] = assay: Minimum inhibition concentration, serial dilution; assay type: cell-based; conditions: Staphylococcus aureus, 37 °C
Protocol: as §7

St. mutans [11] = assay: Minimum inhibition concentration, serial dilution; assay type: cell-based; conditions: Streptococcus mutans, 37 °C
Protocol: as §7

any bacterial strain = assay: Agar diffusion method, stated for all strains together; assay type: cell-based; conditions: in words
Excerpt: as §1, §2, §3, §4, §5, §6

St. mutans [12] = assay: Agar diffusion method, inhibition zone diameter; assay type: cell-based; conditions: Gram-positive
Excerpt: as §1, §2, §3, §4, §5, §6

[13] = target: dihydrofolate reductase in Escherichia coli (Escherichia coli, UniProt P0ABQ4); assay: In vitro DHFR inhibition assessment; assay type: biochemical; conditions: for inhibitory activity against DHFR relative to trimethoprim: fold of trimethoprim, in words
dihydrofolate reductase in Escherichia coli, sequence (P0ABQ4 whole entry): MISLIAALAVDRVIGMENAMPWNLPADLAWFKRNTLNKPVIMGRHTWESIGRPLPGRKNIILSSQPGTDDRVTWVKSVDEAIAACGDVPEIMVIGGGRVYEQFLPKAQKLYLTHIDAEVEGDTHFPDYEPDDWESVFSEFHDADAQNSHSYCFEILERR

[14] = tested on: all tested Gram-negative and Gram-positive strains; assay: Minimum inhibition concentration, stated for all tested strains together; assay type: cell-based
Protocol: as §7

DHFR [15] = tested on: DHFR; design: method as in PMID 28789907; conditions: read-out: IC50 DHFR inhibition; cited from earlier work
DHFR [16] = tested on: DHFR; design: method as in doi:10.1007/s00706-017-2032-7; conditions: read-out: IC50 against DHFR activity; cited from earlier work
[17] = tested on: St. aureus, B. subtilis, K. pneumonia and E. coli; design: method as in doi:10.1007/s12039-020-01844-8; conditions: as printed in Fig. 2; cited from earlier work
[18] = tested on: E. coli and P. aeruginosa; design: method as in earlier work; conditions: cited from earlier work

Row | Compound | IZD E. coli (E. coli [1]) | IZD K. pneumonia (K. pneumonia [2]) | IZD P. aeruginosa (P. aeruginosa [3]) | IZD A. baumannii (A. baumannii [4]) | IZD St. aureus (St. aureus [5]) | MIC (E. coli [6]) | MIC (K. pneumonia [7]) | MIC (A. baumannii [9]) | MIC (St. aureus [10]) | IZD St. mutans (St. mutans [12]) | MIC (P. aeruginosa [8]) | other results
1 | 4-(2-(Benzo[d]thiazol-2-yl)acetamido)benzoic acid [2e] | 35 ± 1 mm | 36 ± 1 mm | 36 ± 1 mm | 36 ± 1 mm | 20 ± 1 mm |  |  |  |  |  |  | MIC E. coli (E. coli [6]): 0.03125 µg/mL; MIC K. pneumonia (K. pneumonia [7]): 0.03125 µg/mL; MIC P. aeruginosa (P. aeruginosa [8]): 0.03125 µg/mL; MIC A. baumannii (A. baumannii [9]): 0.125 µg/mL
2 | O=C(Cc1nc2ccccc2s1)Nc1ccccc1 [2a, 2-(Benzo[d]thiazol-2-yl)-N-phenylacetamide] | 34 ± 0.5 mm | 34 ± 0.8 mm |  |  | 31 ± 1 mm | 0.25 µg/mL (≈ 0.932 µM) | 0.125 µg/mL (≈ 0.466 µM) | 0.125 µg/mL (≈ 0.466 µM) | 0.25 µg/mL (≈ 0.932 µM) |  |  | MIC (St. mutans [11]): 0.0625 µg/mL (≈ 0.233 µM)
3 | Cc1ccc(NC(=O)Cc2nc3ccccc3s2)cc1 [2b, 2-(Benzo[d]thiazol-2-yl)-N-(p-tolyl)acetamide] |  |  |  |  |  |  |  |  |  |  |  | antibacterial activity against any bacterial strain (any bacterial strain): no activity
4 | O=C(Cc1nc2ccccc2s1)Nc1ccc(Cl)cc1 [2c, 2-(Benzo[d]thiazol-2-yl)-N-(4-chlorophenyl)acetamide] | 35 ± 1 mm | 35 ± 1 mm | 36 ± 1 mm | 35 ± 1 mm | 28 ± 1 mm | 0.0312 µg/mL (≈ 0.103 µM) | 0.0312 µg/mL (≈ 0.103 µM) | 0.0312 µg/mL (≈ 0.103 µM) | 0.0312 µg/mL (≈ 0.103 µM) | 25 ± 1 mm | 0.0312 µg/mL (≈ 0.103 µM) | MIC (St. mutans [11]): 0.0312 µg/mL (≈ 0.103 µM); IC50 [13]: 3.8 ± 0.198 µM; inhibitory activity against DHFR relative to trimethoprim [13]: about two-fold; MIC [14]: 0.0312 µg/mL (≈ 0.103 µM)
5 | COc1ccc(C=C(C(=O)Nc2ccc(C)cc2)c2nc3ccccc3s2)cc1 [4f, 2-(Benzo[d]thiazol-2-yl)-3-(4-methoxyphenyl)-N-(p-tolyl)acrylamide] | 25 ± 1.1 mm | 25 ± 1.1 mm | 20 ± 1 mm | 15 ± 1.1 mm | 25 ± 1.1 mm | 0.0625 µg/mL (≈ 0.156 µM) | 0.0312 µg/mL (≈ 0.078 µM) |  |  | 18 ± 1.1 mm | 0.125 µg/mL (≈ 0.312 µM) | MIC K. pneumonia (K. pneumonia [7]): 0.0625 µg/mL (≈ 0.156 µM)
6 | COc1ccc(C=C(C(=O)Nc2ccc(Cl)cc2)c2nc3ccccc3s2)cc1OC [4k, 2-(Benzo[d]thiazol-2-yl)-N-(4-chlorophenyl)-3-(3,4-dimethoxyphenyl)acrylamide] | 22 ± 1.1 mm | 25 ± 1.1 mm | 20 ± 1 mm | 23 ± 1.1 mm | 25 ± 1.1 mm | 0.125 µg/mL (≈ 0.277 µM) | 0.0625 µg/mL (≈ 0.139 µM) | 0.0312 µg/mL (≈ 0.0693 µM) | 0.0625 µg/mL (≈ 0.139 µM) | 18 ± 1.1 mm | 0.125 µg/mL (≈ 0.277 µM) | 
7 | O=C(Nc1ccccc1)C(=Cc1ccc(OC(=O)c2ccccc2)cc1)c1nc2ccccc2s1 [4m, 4-(2-(Benzo[d]thiazol-2-yl)-3-oxo-3-(phenylamino)prop-1-en-1-yl)phenylbenzoate] | 35 ± 1.1 mm | 35 ± 1.1 mm | 30 ± 1 mm | 35 ± 1.1 mm | 25 ± 1.1 mm | 0.0312 µg/mL (≈ 0.0656 µM) | 0.0312 µg/mL (≈ 0.0656 µM) | 0.0312 µg/mL (≈ 0.0656 µM) | 0.0312 µg/mL (≈ 0.0656 µM) | 28 ± 1.1 mm | 0.0312 µg/mL (≈ 0.0656 µM) | MIC (St. mutans [11]): 0.0312 µg/mL (≈ 0.0656 µM); IC50 [13]: 2.44 ± 0.128 µM; inhibitory activity against DHFR relative to trimethoprim [13]: about four-fold; MIC [14]: 0.0312 µg/mL (≈ 0.0656 µM)
8 | Cc1ccc(NC(=O)C(=Cc2ccc(OC(=O)c3ccccc3)cc2)c2nc3ccccc3s2)cc1 [4n, 4-(2-(Benzo[d]thiazol-2-yl)-3-oxo-3-(p-tolylamino)prop-1-en-1-yl)phenylbenzoate] |  |  |  |  |  |  |  |  |  |  |  | antibacterial activity against any bacterial strain (any bacterial strain): no antibacterial activity
9 | Cc1ccc(-n2c(N)c(C#N)c(-c3ccccc3)c(-c3nc4ccccc4s3)c2=O)cc1 [11c, 2-Amino-5-(benzo[d]thiazol-2-yl)-6-oxo-4-phenyl-1-(p-tolyl)-1,6-dihydropyridine-3-carbonitrile] | 35 ± 1 mm | 36 ± 1 mm | 35 ± 1 mm | 35 ± 1 mm |  | 0.0315 µg/mL (≈ 0.0725 µM) | 0.0315 µg/mL (≈ 0.0725 µM) | 0.0315 µg/mL (≈ 0.0725 µM) |  |  | 0.0315 µg/mL (≈ 0.0725 µM) | IC50 [13]: 15 ± 0.785 µM; inhibitory activity against DHFR relative to trimethoprim [13]: half
10 | CC1(C)S[C@@H]2[C@H](NC(=O)[C@H](N)c3ccccc3)C(=O)N2[C@H]1C(=O)O [Ampicillin, reference compound] |  |  |  |  | 29 ± 0.2 mm |  |  |  | 0.0625 µg/mL (≈ 0.179 µM) | 22 ± 0.1 mm |  | MIC (St. mutans [11]): 0.0625 µg/mL (≈ 0.179 µM)
11 | Clc1ccc(/C=N/c2nc3ccccc3s2)cc1 [II] |  |  |  |  |  |  |  |  |  |  |  | IC50 (DHFR [15]): 0.0312 µM
12 | Nc1nc(N)c(-c2nc3ccccc3s2)c(CCCOC(=O)CCl)n1 [IV] |  |  |  |  |  |  |  |  |  |  |  | IC50 (DHFR [16]): 1.3 µM
13 | O=[N+]([O-])c1cccc(/C=N/c2nc3ccccc3s2)c1 [I] |  |  |  |  |  |  |  |  |  |  |  | IC50 (DHFR [15]): 0.0415 µM
14 | O=C1CSC(c2cccc(Cl)c2Cl)N1c1nc2cc(OC(F)(F)F)ccc2s1 (centres unmarked) [VII] |  |  |  |  |  |  |  |  |  |  |  | MIC [17]: 100 to 250 µg/mL
15 | CC(=O)Nc1cc(-c2nc3ccccc3s2)ccc1OCC(=O)N/N=C/c1ccc(O)cc1 [V] |  |  |  |  |  |  |  |  |  |  |  | MIC [18]: 0.2 µg/mL (≈ 0.434 µM)
